Reference: article PMC7179907, “Novel AXL-specific inhibitor ameliorates kidney dysfunction through the inhibition of epithelial-to-mesenchymal transition of renal tubular cells” (PLoS ONE, 2020)

Tests used:
[1] = system: 30 kinases including the TAM family (Tyro3, AXL and, Mer) of receptor tyrosine kinases; test: 30 kinase inhibitory assays (selectivity); type: biochemical; details: Fig 2B
Excerpt: (§1) CH5451098 (N-cyclopropyl-2-[2-[8-[(2R)-2,3-dihydroxypropoxy]-6,6-dimethyl-11-oxo-naphtho[2,3-b]benzofuran-3-yl]ethynyl]pyridine-4-carboxamide), a selective inhibitor of AXL, was synthesized at Chugai Pharmaceutical Co. Ltd. (Fig 1). The following recombinant proteins were used for the kinase assay: AXL, Mer, Tyro3, Flt3, JAK2, EGFR, HER2, KIT, PDGFRβ, FGFR2, KDR, MET, ALK, EPHA2, EPHB2, FAK, SRC, ABL, ERK1, PKA, AKT1, PKACα, PKACβ1, AurA, CHK1, CHK2, MNK1, CDK1, and p38α from Carna Biosciences (Kobe, Japan), and Raf1 from Thermo Fisher Scientific (Waltham, MA). Recombinant mouse TGFβ1 (mTGFβ1) and recombinant mouse Gas6 (mGas6) were purchased from R&D systems. All other chemicals were of the highest purity available. The following primary antibodies were used for this study: anti-beta catenin (8480), anti-zinc finger E-box-binding homeobox 1 (Zeb1) (3396), anti-glyceraldehyde-3-phosphate dehydrogenase (GAPDH) (8884) antibody from Cell Signaling Technology (Danvers, MA). […]
(§2) Protein kinases were purchased from Carna Biosciences or Millipore. The inhibitory activity against each kinase was evaluated as described previously.
(§3) Fig 2 In vitro kinase inhibitory activity of CH5451098. […] Enzyme inhibitory activity was calculated by the formula (1-T/C) x 100 (%), where T represents the measured value of the wells with a compound and C represents that of wells without a compound (n = 2). […]

[2] = system: NRK-52E cells; test: EMT induced by TGFβ1 and Gas6 in NRK-52E cells (mRNA expression); type: cell-based, rat; details: CH5451098 1 nmol/L; mTGFβ1 2 ng/mL and mGas6 500 ng/mL; 2 hours
Protocol: RNA samples were extracted from frozen mouse kidney cortex or NRK-52E cells using an RNaesy Mini kit (QIAGEN, Hilden, Germany). cDNA were synthesized from RNA using a reverse transcription kit (Roche applied science, Penzberg, Germany). Expression levels were measured by a LightCycler 480 (Roche Applied science) using TaqMan probe/primer sets for each gene (Thermo Fisher Scientific).
NRK-52E cell line derived from rat renal tubular epithelial cells was purchased from ATCC (Manassas, VA) and cultured in Dulbecco’s modified eagle’s medium with high glucose media supplemented with 5% FBS at 37°C under 5% CO 2 and 95% air.
NRK-52E cells were seeded onto a collagen-coated plate and were cultured over-night. After reaching subconfluence, cells were cultured in serum restricted medium (0.5% FBS) for 6 hours. Then the cells were stimulated with recombinant mTGFβ1 (2 ng/mL) and/or recombinant mGas6 (500 ng/mL) followed by treatment with or without CH5451098 (1 nmol/L) for 15 minutes. The cells were lysed with RLT buffer (Qiagen) after 2 hours incubation with stimulants and mRNA was purified using RNeasy mini kit (Qiagen).

[3] = system: NEP25 mice; test: NEP25 mouse model of glomerular nephritis (LMB2-induced); type: in vivo
Protocol: NEP25 mice, heterozygous podocyte-specific hCD25 transgenic mice, were bred in Tokai University and kindly provided by Matsusaka et al.. All mice were kept in well-controlled animal housing with free access to water and pellet food. Animal procedures and protocols were in accordance with the Guidelines for the Care and Use of Laboratory Animals at Chugai Pharmaceutical Co. Ltd. and approved by the Institutional Animal Care and Use Committee.
To induce disease, NEP25 mice were injected with 0.8 μg/kg of the immunotoxin LMB2 (provided from National Institutes of Health, USA) via the tail vein, except in the normal control group (n = 4). CH5451098 powder was suspended in a 0.5% carboxymethyl cellulose solution to prepare 1.0 mg/mL. Mice were divided into 2 groups and were orally administered vehicle (disease group, n = 10) or CH5451098 10 mg/kg once daily for 21 days (CH5451098 group, n = 10) from one day before LMB2 injection. The dose of CH5451098 was set high enough to inhibit AXL kinase activity throughout the day. Mice not treated with LMB2 were used as normal control.
Blood and urine samples were collected on day 7, 14, or, 21 after LMB2 injection. Blood samples were collected from the abdominal portion of the vena cava under isoflurane anesthesia and were centrifuged to obtain serum samples. Urine samples were collected for 24 hours using a metabolic cage. The mice were euthanized by exsanguination under isoflurane anesthesia at day 22 after LMB2 injection. Kidney tissues were dissected for pathology (formalin-fixed or methyl carnoy-fixed) and kidney cortex samples were collected and snap frozen in liquid nitrogen.
Serum urea nitrogen (BUN), creatinine (sCre) and urinary albumin (uAlb), N-Acetyl-beta-D Glucosaminidase (NAG), and creatinine were measured using an automatic analyzer (Hitachi 7100 Autoanlayzer, Hitachi Co., Ltd. Tokyo, Japan).
RNA samples were extracted from frozen mouse kidney cortex or NRK-52E cells using an RNaesy Mini kit (QIAGEN, Hilden, Germany). cDNA were synthesized from RNA using a reverse transcription kit (Roche applied science, Penzberg, Germany). Expression levels were measured by a LightCycler 480 (Roche Applied science) using TaqMan probe/primer sets for each gene (Thermo Fisher Scientific). […]

[4] = target: T1, AXL (Homo sapiens, UniProt P30530); test: Protein kinase assay, AXL; type: biochemical; details: recombinant AXL, 1.5 hours treatment, n = 2; read-out: IC50 against AXL kinase activity
T1 construct: purchased Carna Biosciences (Kobe, Japan)
T1 sequence (P30530 26-894): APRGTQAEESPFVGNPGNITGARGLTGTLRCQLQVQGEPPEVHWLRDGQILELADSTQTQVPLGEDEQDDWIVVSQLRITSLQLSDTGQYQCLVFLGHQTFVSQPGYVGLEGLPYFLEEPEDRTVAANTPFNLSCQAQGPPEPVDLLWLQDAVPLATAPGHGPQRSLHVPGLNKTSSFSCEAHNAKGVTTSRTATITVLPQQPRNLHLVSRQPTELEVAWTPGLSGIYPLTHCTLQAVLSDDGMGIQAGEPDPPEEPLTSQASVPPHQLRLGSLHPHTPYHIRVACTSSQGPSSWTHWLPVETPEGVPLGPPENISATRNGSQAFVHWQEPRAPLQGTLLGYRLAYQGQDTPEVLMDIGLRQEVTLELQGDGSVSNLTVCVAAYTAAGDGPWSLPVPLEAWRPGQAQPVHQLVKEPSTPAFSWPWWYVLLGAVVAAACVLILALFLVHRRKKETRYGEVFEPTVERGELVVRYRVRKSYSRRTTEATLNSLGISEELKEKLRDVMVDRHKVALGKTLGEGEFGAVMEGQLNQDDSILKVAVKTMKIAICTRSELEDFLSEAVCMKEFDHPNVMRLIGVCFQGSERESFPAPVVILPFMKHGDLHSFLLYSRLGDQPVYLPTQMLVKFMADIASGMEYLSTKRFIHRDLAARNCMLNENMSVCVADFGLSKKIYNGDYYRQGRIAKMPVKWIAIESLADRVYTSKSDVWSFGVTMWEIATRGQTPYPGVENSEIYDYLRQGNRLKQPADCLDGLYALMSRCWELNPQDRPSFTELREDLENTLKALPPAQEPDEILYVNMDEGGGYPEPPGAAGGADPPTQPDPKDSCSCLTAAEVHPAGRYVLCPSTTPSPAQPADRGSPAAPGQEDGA
Excerpt: as §1, §2, §3

[5] = 10 mg/kg once daily 21 days, kidney cortex, vs disease control
[6] = 10 mg/kg once daily 21 days, vs disease control
[7] = 10 mg/kg orally once daily 21 days, blood 24 hours after final administration, mean ± SE, p<0.01 vs disease control
[8] = kidney cortex, 3 weeks after disease induction, vs disease control

CC1(C)c2cc(OC[C@H](O)CO)ccc2C(=O)c2c1oc1cc(C#Cc3cc(C(=O)NC4CC4)ccn3)ccc21 [CH5451098, N-cyclopropyl-2-[2-[8-[(2R)-2,3-dihydroxypropoxy]-6,6-dimethyl-11-oxo-naphtho[2,3-b]benzofuran-3-yl]ethynyl]pyridine-4-carboxamide]
selectivity against other kinases [1]: strongest inhibitory activity towards AXL among 30 kinases | LCN2 mRNA induced by Gas6 and TGFβ1 [2]: inhibited | Snai1 mRNA induced by Gas6 along with TGFβ1 [2]: markedly inhibited | Twist1 mRNA induced by Gas6 along with TGFβ1 [2]: markedly inhibited | Zeb1 mRNA induced by Gas6 along with TGFβ1 [2]: markedly inhibited | enhancement of Pai1 mRNA [2]: suppressed | enhancement of TGFβ1 mRNA [2]: suppressed | uAlb excretion ([3]; 10 mg/kg once daily 21 days, 3 weeks after disease induction, vs disease control): significantly decreased | Renal LCN2 mRNA [3, 5]: significantly decreased | kidney Col1a1 mRNA [3, 5]: significantly reduced | kidney OH-Pro content [3, 5]: suppressed | kidney Pai1 mRNA [3, 5]: significantly inhibited | kidney Snai1 mRNA [3, 5]: did not reduce | kidney TGFβ1 mRNA expression [3, 5]: only a partial reduction | kidney Twist1 mRNA [3, 5]: tended to suppress | kidney Zeb1 mRNA [3, 5]: suppressed | Urinary NAG excretion ([3]; 10 mg/kg once daily 21 days, urine 0 to 24 hours after final administration, vs disease control): significantly inhibited | abundance of stained connective tissue (Sirius red and Masson's Trichrome staining) [3, 6]: inhibited | destruction of glomerular structure (periodic acid-Schiff stain) [3, 6]: ameliorated | tubulointerstitial fibrosis (semi-quantitative score, Masson's trichrome) [3, 6]: significantly suppressed | BUN [3, 7]: 55 ± 5.0 mg/dL | Serum creatinine (sCre) [3, 7]: 0.15 ± 0.019 mg/dL | uAlb leakage ([3]; 2 weeks after disease induction, compared to DC group, data not shown): no effect | kidney Zeb1 protein level (western blotting) [3, 8]: reduced | kidney beta-catenin protein level (western blotting) [3, 8]: reduced | IC50 [4]: 3.8 nM
